Assay results: US20220160703A1, “TUMOR-SELECTIVE COMBINATION THERAPY” (The Board of Regents of The University of Texas System, priority 2019, published 2022)

How the values were obtained:
[1] = system: NQO1 positive tumor cell lines MC38, TC-1 and Ag104Ld; format: cell-based; details: MC38 and B16 NQO1 cells, β-lap 3 hr, catalase 1000 U/ml, survival 48 hr later
Experimental: (FIG. 1A) NQO1 positive tumor cell lines MC38, TC-1 and Ag104Ld and NQO1 negative cell lines Panc02 and B16 grown in 48-well plates were treated with β-lap (0-8 μM) for a 3 hr followed by washing and replacing medium. Cell viability was determined by Sulforhodamine B (SRB) Assay 4 days later. […] (FIG. 1C) MC38 cells with CRISPR-based NQO1 Knockout (MC38 NQO1KO #5) planted in 96-well plates were exposed to β-lap for 3 hr and cell survival was assessed 48 hr later. […] (FIG. 1E) MC38 cells were exposed to a lethal dose of β-lap (4 μM) for indicated times, then stained with 7-AAD and Annexin V followed by flow cytometry analysis. […] (FIG. 1H) MC38 and B16 NQO1 #1 cells were exposed to β-lap for a 3 hr. Catalase (1000 U/ml) was added and cell survival was assessed 48 hr later. (FIG. 1I) C57BL/6 mice (n=5/group) were transplanted with MC38 cells and treated with β-lap (0.03 mg, 0.1 mg or 0.3 mg, intratumorally; or 25 mg/kg, i.v.) every other day for four times. […] Tumor growth was monitored twice a week.
(FIG. 8A) NQO1 expression in multiple murine tumor lines was immunoblotted as indicated. […] Drugs were removed and survival assessed 5 days later. (FIG. 8C) Relative H2O2 levels were assessed in various cells treated with β-lap for 3 h at the indicated doses using CellRox-Glo. […] (FIG. 8D) TC-1 cells exposure to β-lap for 12 h, later PARP-1 and Caspase-3 levels were analyzed by western blotting assay. […]
(FIGS. 14A-C) NQO1 cells MC38 (A) and TC-1 (B) and NQO1^− cells B16 (C) were treated for 2 h with various doses of IB-DNQ±DIC (50 μM). Drugs were removed and survival assessed 6 days later. […] (FIGS. 14E-F) Relative NAD^+ (E) or ATP (F) levels were assessed in TC-1 cells exposed to various doses of IB-DNQ for 2 h. […] Comet tail lengths in a.u. were monitored at indicated time; and DSBs quantified by γH2AX foci/nuclei using immunofluorescence at indicated time (FIG. 14H). […]
(FIG. 21A) Viability of murine cell lines following IB-DNQ treatment for 4 h. […] (FIGS. 21D-E) DNA double strand break was assessed via comet assay (FIG. 21D) and γH2AX foci/nuclei immunofluorescence (FIG. 21E). […]

NQO1 = NQO1 (Homo sapiens, UniProt P15559); experiment: NQO1-catalyzed futile redox cycle / processing in vitro; format: biochemical; details: compared with β-lap
[2] = Formulation of DNQ compounds in HPβCD; format: physicochemical
Excerpt: This same neutral solution of DNQ in HPβCD cannot be made directly (i.e. without pH adjustment). […] The only proton on DNQ that might reasonably be deprotonated in aqueous base is the N—H. […] The protocol for formulating DNQ compounds in HPβCD is as follows: the DNQ compound is slurried in a 20% solution of HPβCD in pH 7.4 PBS and the pH is then increased by the addition of 10 M NaOH to induce dissolution of the DNQ compound. The pH is returned to pH 7.5-8.0 by the careful addition of 1 M HCl. A 3.3 mM solution of the DNQ compound can be made by this method which is stable at least 24 hours. This represents a 30-fold increase in solubility of DNQ over PBS alone. The inventors initially chose a 20% HPβCD solution.

[3] = Aqueous solubility of DNQ in PBS by LC-MS; format: physicochemical; details: pH 7.4 phosphate buffered saline, 30 min sonication, filtered
Experimental: The aqueous solubility of DNQ at pH 7.4 in phosphate buffered saline (PBS) was measured by LC-MS. DNQ was sonicated for 30 minutes in PBS then undissolved solid was removed by filtration through a 0.45 μm syringe filter and the filtrate was analyzed by LC-MS (λ=275 nm, ESI-TOF in negative mode). The optimal sonication time was determined by sonicating DNQ for 1, 5, 10, and 30 minutes. While the concentration of DNQ in solution increased substantially between 1, 5, and 10 minutes, there was only a minor difference between 10 and 30 minutes. During the 30-minute sonication the water bath warmed to 45° C. (samples were cooled to room temperature before filtration). A calibration curve was generated from 1-100 μM by dissolving DNQ in methanol to a concentration of 500 μM and making dilutions of this stock in 80:20 water:methanol. The calibration curve (measure by UV absorbance) was linear over this range; 1 μM was approximately the limit of detection. […] The solution was very pale yellow.

NQO1, sequence (P15559 whole entry, species assumed): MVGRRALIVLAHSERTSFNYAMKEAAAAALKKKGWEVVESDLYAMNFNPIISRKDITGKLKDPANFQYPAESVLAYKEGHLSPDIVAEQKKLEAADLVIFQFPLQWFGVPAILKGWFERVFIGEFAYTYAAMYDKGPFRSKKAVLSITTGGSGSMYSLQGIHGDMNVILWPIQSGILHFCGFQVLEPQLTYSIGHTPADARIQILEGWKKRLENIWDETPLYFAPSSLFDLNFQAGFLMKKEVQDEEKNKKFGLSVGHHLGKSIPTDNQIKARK

| Compound | effect of H2O2 scavenging on β-lap lethality [1] | efficiency of processing by NQO1 in vitro (NQO1) | stability of the HPβCD solution ([2]; 3.3 mM solution in 20% HPβCD) | increase in solubility over PBS alone ([2]; 20% HPβCD) [fold] | concentration of solution that can be made in HPβCD ([2]; 20% HPβCD in pH 7.4 PBS, pH raised with NaOH then returned to pH 7.5-8.0) [µM] | concentration of solution permitted by 40% HPβCD ([2]; 40% HPβCD, concentration increases linearly with HPβCD) [µM] | solubility of DNQ in PBS [3] [µM] |
| --- | --- | --- | --- | --- | --- | --- | --- |
| Catalase | significantly spared β-lap-mediated lethality |  |  |  |  |  |  |
| Cc1cc(=O)[nH]c2c1C(=O)c1c(C)cc(=O)n(C)c1C2=O [DNQ, Deoxynyboquinone] |  | much more efficiently than β-lap | at least 24 hours | 30 | 3300 | 6600 | 115 |
